{
  "source": "PubChem BioAssay AID212",
  "about": "(DTP/NCI, 2004)",
  "system": "BDF1 mice, colon carcinoma 38 sc, T/C %",
  "test": "NCI In Vivo Anticancer Drug Screen. Data for tumor model Colon Carcinoma 38 (subcutaneous) in B6D2F1 (BDF1) mice",
  "summary_of_the_method": "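Ratio of survival or tumor size, compound-treated animals relative to vehicle controls, in tumor-bearing mice.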",
  "key": {"[1]": {"conditions": "endpoint: median tumor weight (est.), dose: 12.5 mg/kg/injection, schedule: Q07DX002 (ip), vehicle: Klucel (hydroxypropylcellulose) (HPC), higher = larger tumour"}, "[2]": {"conditions": "endpoint: median tumor weight (est.), dose: 12.5 mg/kg/injection, schedule: Q07DX002 (ip), vehicle: saline with Tween-80, higher = larger tumour"}, "[3]": {"conditions": "endpoint: median tumor weight (est.), dose: 50.0 mg/kg/injection, schedule: Q07DX002 (ip), vehicle: saline with Tween-80, higher = larger tumour"}, "[4]": {"conditions": "endpoint: median tumor weight (est.), dose: 100.0 mg/kg/injection, schedule: Q07DX002 (ip), vehicle: saline with Tween-80, higher = larger tumour"}, "[5]": {"conditions": "endpoint: median tumor weight (est.), dose: 200.0 mg/kg/injection, schedule: Q07DX002 (ip), vehicle: saline with Tween-80, higher = larger tumour"}},
  "note": "Values joined by “and” are separate entries in the source; they are usually repeats but may differ in a detail not shown here. Equal values may be shown once. Results filed as inconclusive are left out.",
  "data": [
    {"compound": "C1CCC2OCCOCCOC3CCCCC3OCCOCCOC2C1", "note": "(stereo not drawn)", "values": [
      {"measurement": "T/C", "setting": "endpoint: median tumor weight (est.), dose: 3.12 mg/kg/injection, schedule: Q07DX002 (ip), vehicle: Klucel (hydroxypropylcellulose) (HPC), higher = larger tumour", "value": "210 % of control and 96 % of control"},
      {"measurement": "T/C", "setting": "endpoint: median tumor weight (est.), dose: 6.25 mg/kg/injection, schedule: Q07DX002 (ip), vehicle: Klucel (hydroxypropylcellulose) (HPC), higher = larger tumour", "value": "176 % of control"},
      {"measurement": "T/C", "setting": "[1]", "value": "85 % of control"},
      {"measurement": "T/C", "setting": "endpoint: median tumor weight (est.), dose: 50.0 mg/kg/injection, schedule: Q07DX002 (ip), vehicle: Klucel (hydroxypropylcellulose) (HPC), higher = larger tumour", "value": "85 % of control"}
    ]},
    {"compound": "COC1C(O)C(C)OC(OC2C(Oc3cccc4c(O)c5c(=O)oc6ccc(C)c7c(=O)oc(c34)c5c67)OC(C)C(O)C2O)C1O", "note": "(stereo not drawn)", "values": [
      {"measurement": "T/C", "setting": "[1]", "value": "118 % of control and 108 % of control"},
      {"measurement": "T/C", "setting": "[2]", "value": "111 % of control"},
      {"measurement": "T/C", "setting": "endpoint: median tumor weight (est.), dose: 12.5 mg/kg/injection, schedule: Q07DX003 (ip), vehicle: Klucel (hydroxypropylcellulose) (HPC), higher = larger tumour", "value": "72 % of control and 92 % of control"},
      {"measurement": "T/C", "setting": "endpoint: median tumor weight (est.), dose: 25.0 mg/kg/injection, schedule: Q07DX002 (ip), vehicle: Klucel (hydroxypropylcellulose) (HPC), higher = larger tumour", "value": "57 % of control"},
      {"measurement": "T/C", "setting": "endpoint: median tumor weight (est.), dose: 25.0 mg/kg/injection, schedule: Q07DX002 (ip), vehicle: saline with Tween-80, higher = larger tumour", "value": "83 % of control"},
      {"measurement": "T/C", "setting": "endpoint: median tumor weight (est.), dose: 25.0 mg/kg/injection, schedule: Q07DX003 (ip), vehicle: Klucel (hydroxypropylcellulose) (HPC), higher = larger tumour", "value": "103 % of control"},
      {"measurement": "T/C", "setting": "[3]", "value": "84 % of control"},
      {"measurement": "T/C", "setting": "[4]", "value": "75 % of control"},
      {"measurement": "T/C", "setting": "endpoint: median tumor weight (est.), dose: 100.0 mg/kg/injection, schedule: Q07DX003 (ip), vehicle: Klucel (hydroxypropylcellulose) (HPC), higher = larger tumour", "value": "88 % of control and 104 % of control"},
      {"measurement": "T/C", "setting": "endpoint: median tumor weight (est.), dose: 200.0 mg/kg/injection, schedule: Q07DX002 (ip), vehicle: Klucel (hydroxypropylcellulose) (HPC), higher = larger tumour", "value": "157 % of control"},
      {"measurement": "T/C", "setting": "[5]", "value": "107 % of control"}
    ]},
    {"compound": "CCCCCCCCCCCCN1C(C)=CS/C1=C\\C=C\\c1scc(C)[n+]1CCCCCCCCCCCC", "values": [
      {"measurement": "T/C", "setting": "endpoint: median tumor weight (est.), dose: 0.78 mg/kg/injection, schedule: Q07DX002 (ip), vehicle: saline with Tween-80, higher = larger tumour", "value": "124 % of control"},
      {"measurement": "T/C", "setting": "endpoint: median tumor weight (est.), dose: 1.56 mg/kg/injection, schedule: Q07DX002 (ip), vehicle: saline with Tween-80, higher = larger tumour", "value": "98 % of control"},
      {"measurement": "T/C", "setting": "endpoint: median tumor weight (est.), dose: 3.12 mg/kg/injection, schedule: Q07DX002 (ip), vehicle: saline with Tween-80, higher = larger tumour", "value": "79 % of control"},
      {"measurement": "T/C", "setting": "endpoint: median tumor weight (est.), dose: 6.25 mg/kg/injection, schedule: Q07DX002 (ip), vehicle: saline with Tween-80, higher = larger tumour", "value": "88 % of control"},
      {"measurement": "T/C", "setting": "endpoint: median tumor weight (est.), dose: 12.0 mg/kg/injection, schedule: Q07DX002 (ip), vehicle: saline with Tween-80, higher = larger tumour", "value": "101 % of control"},
      {"measurement": "T/C", "setting": "[2]", "value": "120 % of control"}
    ]},
    {"compound": "CC(=O)Nc1cscc1NC(C)=O", "values": [
      {"measurement": "T/C", "setting": "[3]", "value": "115 % of control"},
      {"measurement": "T/C", "setting": "[4]", "value": "91 % of control"},
      {"measurement": "T/C", "setting": "[5]", "value": "66 % of control"},
      {"measurement": "T/C", "setting": "endpoint: median tumor weight (est.), dose: 400.0 mg/kg/injection, schedule: Q07DX002 (ip), vehicle: saline with Tween-80, higher = larger tumour", "value": "93 % of control"},
      {"measurement": "T/C", "setting": "endpoint: median tumor weight (est.), dose: 800.0 mg/kg/injection, schedule: Q07DX002 (ip), vehicle: saline with Tween-80, higher = larger tumour", "value": "73 % of control"}
    ]},
    {"compound": "Nc1ccn(C2CC(O)C(CO)O2)c(=O)n1", "note": "(stereo not drawn)", "values": [
      {"measurement": "T/C", "setting": "endpoint: median tumor weight (est.), dose: 42.19 mg/kg/injection, schedule: Q07DX002 (ip), vehicle: water, higher = larger tumour", "value": "124 % of control"},
      {"measurement": "T/C", "setting": "endpoint: median tumor weight (est.), dose: 84.38 mg/kg/injection, schedule: Q07DX002 (ip), vehicle: water, higher = larger tumour", "value": "79 % of control"},
      {"measurement": "T/C", "setting": "endpoint: median tumor weight (est.), dose: 337.5 mg/kg/injection, schedule: Q07DX002 (ip), vehicle: water, higher = larger tumour", "value": "110 % of control"}
    ]},
    {"compound": "CC1(C)COCN1COC1CCCCC1", "values": [
      {"measurement": "T/C", "setting": "endpoint: median tumor weight (est.), dose: 25.0 mg/kg/injection, schedule: Q07DX002 (ip), vehicle: suspension in saline, higher = larger tumour", "value": "84 % of control"},
      {"measurement": "T/C", "setting": "endpoint: median tumor weight (est.), dose: 50.0 mg/kg/injection, schedule: Q07DX002 (ip), vehicle: suspension in saline, higher = larger tumour", "value": "93 % of control"},
      {"measurement": "T/C", "setting": "endpoint: median tumor weight (est.), dose: 100.0 mg/kg/injection, schedule: Q07DX002 (ip), vehicle: suspension in saline, higher = larger tumour", "value": "97 % of control"},
      {"measurement": "T/C", "setting": "endpoint: median tumor weight (est.), dose: 200.0 mg/kg/injection, schedule: Q07DX002 (ip), vehicle: suspension in saline, higher = larger tumour", "value": "64 % of control"}
    ]},
    {"compound": "O=C1CN(CN2CCOCC2)C(=O)CN1CN1CCOCC1", "values": [
      {"measurement": "T/C", "setting": "endpoint: median tumor weight (est.), dose: 12.5 mg/kg/injection, schedule: Q07DX002 (ip), vehicle: saline, higher = larger tumour", "value": "115 % of control"},
      {"measurement": "T/C", "setting": "endpoint: median tumor weight (est.), dose: 50.0 mg/kg/injection, schedule: Q07DX002 (ip), vehicle: saline, higher = larger tumour", "value": "116 % of control and 107 % of control"},
      {"measurement": "T/C", "setting": "endpoint: median tumor weight (est.), dose: 100.0 mg/kg/injection, schedule: Q07DX002 (ip), vehicle: saline, higher = larger tumour", "value": "115 % of control"},
      {"measurement": "T/C", "setting": "endpoint: median tumor weight (est.), dose: 400.0 mg/kg/injection, schedule: Q07DX002 (ip), vehicle: saline, higher = larger tumour", "value": "50 % of control"}
    ]},
    {"compound": "CNC(=O)O/N=C(\\CN=[N+]=[N-])C(C)(C)C", "values": [
      {"measurement": "T/C", "setting": "endpoint: median tumor weight (est.), dose: 1.0 mg/kg/injection, schedule: Q07DX002 (ip), vehicle: saline, higher = larger tumour", "value": "103 % of control"}
    ]},
    {"compound": "COc1cccc2c1C(=O)c1c(O)c3c(c(O)c1C2=O)C[C@@](O)(C(C)=O)C[C@@H]3OC1CC(N(Cc2ccccc2)Cc2ccccc2)C(O)C(C)O1", "note": "(stereo partly drawn)", "values": [
      {"measurement": "T/C", "setting": "endpoint: median survival time, dose: 43.0 mg/kg/injection, schedule: Q07DX003 (sc), vehicle: saline with Tween-80, higher = longer survival", "value": "152 % of control"},
      {"measurement": "T/C", "setting": "endpoint: median survival time, dose: 69.0 mg/kg/injection, schedule: Q07DX003 (sc), vehicle: saline with Tween-80, higher = longer survival", "value": "170 % of control"},
      {"measurement": "T/C", "setting": "endpoint: median survival time, dose: 112.0 mg/kg/injection, schedule: Q07DX003 (sc), vehicle: saline with Tween-80, higher = longer survival", "value": "220 % of control"},
      {"measurement": "T/C", "setting": "endpoint: median survival time, dose: 180.0 mg/kg/injection, schedule: Q07DX003 (sc), vehicle: saline with Tween-80, higher = longer survival", "value": "254 % of control"},
      {"measurement": "T/C", "setting": "endpoint: median tumor weight (est.), dose: 6.75 mg/kg/injection, schedule: Q07DX002 (ip), vehicle: distilled water + Tween-80, higher = larger tumour", "value": "108 % of control"},
      {"measurement": "T/C", "setting": "endpoint: median tumor weight (est.), dose: 13.5 mg/kg/injection, schedule: Q07DX002 (ip), vehicle: distilled water + Tween-80, higher = larger tumour", "value": "57 % of control"},
      {"measurement": "T/C", "setting": "endpoint: median tumor weight (est.), dose: 27.0 mg/kg/injection, schedule: Q07DX002 (ip), vehicle: distilled water + Tween-80, higher = larger tumour", "value": "13 % of control"},
      {"measurement": "T/C", "setting": "endpoint: median tumor weight (est.), dose: 27.0 mg/kg/injection, schedule: Q07DX002 (ip), vehicle: saline with Tween-80, higher = larger tumour", "value": "39 % of control and 50 % of control"},
      {"measurement": "T/C", "setting": "endpoint: median tumor weight (est.), dose: 54.0 mg/kg/injection, schedule: Q07DX002 (ip), vehicle: saline with Tween-80, higher = larger tumour", "value": "8 % of control"},
      {"measurement": "T/C", "setting": "endpoint: median tumor weight (est.), dose: 108.0 mg/kg/injection, schedule: Q07DX002 (ip), vehicle: saline with Tween-80, higher = larger tumour", "value": "3 % of control"}
    ]}
  ]
}
